According to paper PMC5761851, “Application of a phenotypic drug discovery strategy to identify biological and chemical starting points for inhibition of TSLP production in lung epithelial cells” (PLoS ONE, 2018):

Assays:
Test in all cases: kinase selectivity panel
Assay type in all cases: biochemical
Aurora-A = target: T1, Aurora-A (Homo sapiens, UniProt O14965); conditions: read-out: percentage of control activity (POC), Aurora-A
T1 construct: purchased Eurofins Pharma Discovery Services (KinaseProfiler; Cerep BioPrint panel)
T1 sequence (O14965 1-403): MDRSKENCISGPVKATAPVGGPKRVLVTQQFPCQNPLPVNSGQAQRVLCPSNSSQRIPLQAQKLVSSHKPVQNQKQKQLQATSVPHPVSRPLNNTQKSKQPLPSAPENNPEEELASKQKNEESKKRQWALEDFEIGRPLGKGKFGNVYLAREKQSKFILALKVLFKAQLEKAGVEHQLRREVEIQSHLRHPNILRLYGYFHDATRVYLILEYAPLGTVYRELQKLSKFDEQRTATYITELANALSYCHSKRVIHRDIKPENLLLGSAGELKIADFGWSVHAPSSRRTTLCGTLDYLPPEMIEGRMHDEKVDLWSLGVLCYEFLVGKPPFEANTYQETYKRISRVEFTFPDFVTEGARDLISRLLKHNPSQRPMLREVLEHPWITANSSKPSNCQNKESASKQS
Procedure: (§1) Kinase selectivity was evaluated at Eurofins Pharma Discovery Services using a selection of 125 representative kinases tested at a concentration of 10 μM in duplicate (S3 Table). IC50 values for selected activities were further characterized at 9 duplicate concentrations. DNA-PK activity was determined at the SelectScreen® Biochemical kinase Profiling Service of Thermo Fisher Scientific.

CDK1/cyclinB = target: T2, CDK1/cyclinB (Homo sapiens, UniProt P06493); conditions: read-out: percentage of control activity (POC), CDK1/cyclinB
T2 construct: purchased Eurofins Pharma Discovery Services (KinaseProfiler; Cerep BioPrint panel)
Procedure: as §1

CDK6/cyclinD3 = target: T3, CDK6/cyclinD3 (Homo sapiens, UniProt Q00534); conditions: read-out: percentage of control activity (POC), CDK6/cyclinD3
T3 construct: purchased Eurofins Pharma Discovery Services (KinaseProfiler; Cerep BioPrint panel)
Procedure: as §1

CK1γ1 = target: T4, CK1γ1 (Homo sapiens, UniProt Q9HCP0); conditions: read-out: percentage of control activity (POC), CK1γ1
T4 construct: purchased Eurofins Pharma Discovery Services (KinaseProfiler; Cerep BioPrint panel)
Procedure: as §1

CK2α2 = target: T5, CK2α2 (Homo sapiens, UniProt P19784); conditions: read-out: percentage of control activity (POC), CK2α2
T5 construct: purchased Eurofins Pharma Discovery Services (KinaseProfiler; Cerep BioPrint panel)
Procedure: as §1

CSK = target: T6, CSK (Homo sapiens, UniProt P41240); conditions: read-out: percentage of control activity (POC), CSK
T6 construct: purchased Eurofins Pharma Discovery Services (KinaseProfiler; Cerep BioPrint panel)
Procedure: as §1

CaMKI = target: T7, CaMKI (Homo sapiens, UniProt Q14012); conditions: read-out: percentage of control activity (POC), CaMKI
T7 construct: purchased Eurofins Pharma Discovery Services (KinaseProfiler; Cerep BioPrint panel)
Procedure: as §1

EphA2 = target: T8, EphA2 (Homo sapiens, UniProt P29317); conditions: read-out: percentage of control activity (POC), EphA2
T8 construct: purchased Eurofins Pharma Discovery Services (KinaseProfiler; Cerep BioPrint panel)
Procedure: as §1

EphA5 = target: T9, EphA5 (Homo sapiens, UniProt P54756); conditions: read-out: percentage of control activity (POC), EphA5
T9 construct: purchased Eurofins Pharma Discovery Services (KinaseProfiler; Cerep BioPrint panel)
Procedure: as §1

FGFR1 = target: T10, FGFR1 (Homo sapiens, UniProt P11362); conditions: read-out: percentage of control activity (POC), FGFR1
T10 construct: purchased Eurofins Pharma Discovery Services (KinaseProfiler; Cerep BioPrint panel)
Procedure: as §1

FGFR3 = target: T11, FGFR3 (Homo sapiens, UniProt P22607); conditions: read-out: percentage of control activity (POC), FGFR3
T11 construct: purchased Eurofins Pharma Discovery Services (KinaseProfiler; Cerep BioPrint panel)
Procedure: as §1

FGFR4 = target: T12, FGFR4 (Homo sapiens, UniProt P22455); conditions: read-out: percentage of control activity (POC), FGFR4
T12 construct: purchased Eurofins Pharma Discovery Services (KinaseProfiler; Cerep BioPrint panel)
Procedure: as §1

IGF-1R = target: T13, IGF-1R (Homo sapiens, UniProt P08069); conditions: read-out: percentage of control activity (POC), IGF-1R
T13 construct: purchased Eurofins Pharma Discovery Services (KinaseProfiler; Cerep BioPrint panel)
Procedure: as §1

JNK1α1 = target: T14, JNK1α1 (Homo sapiens, UniProt P45983); conditions: read-out: percentage of control activity (POC), JNK1α1
T14 construct: purchased Eurofins Pharma Discovery Services (KinaseProfiler; Cerep BioPrint panel)
Procedure: as §1

MAPKAP-K2 = target: T15, MAPKAP-K2 (Homo sapiens, UniProt P49137); conditions: read-out: percentage of control activity (POC), MAPKAP-K2
T15 construct: purchased Eurofins Pharma Discovery Services (KinaseProfiler; Cerep BioPrint panel)
Procedure: as §1

Mnk2 = target: T16, Mnk2 (Homo sapiens, UniProt Q9HBH9); conditions: read-out: percentage of control activity (POC), Mnk2
T16 construct: purchased Eurofins Pharma Discovery Services (KinaseProfiler; Cerep BioPrint panel)
Procedure: as §1

PAK2 = target: T17, PAK2 (Homo sapiens, UniProt Q13177); conditions: read-out: percentage of control activity (POC), PAK2
T17 construct: purchased Eurofins Pharma Discovery Services (KinaseProfiler; Cerep BioPrint panel)
Procedure: as §1

PKBα = target: T18, PKBα (Homo sapiens, UniProt P31749); conditions: read-out: percentage of control activity (POC), PKBα
T18 construct: purchased Eurofins Pharma Discovery Services (KinaseProfiler; Cerep BioPrint panel)
Procedure: as §1

PKCβII = target: T19, PKCβII (Homo sapiens, UniProt P05771); conditions: read-out: percentage of control activity (POC), PKCβII
T19 construct: purchased Eurofins Pharma Discovery Services (KinaseProfiler; Cerep BioPrint panel)
Procedure: as §1

Rsk3 = target: T20, Rsk3 (Homo sapiens, UniProt Q15349); conditions: read-out: percentage of control activity (POC), Rsk3
T20 construct: purchased Eurofins Pharma Discovery Services (KinaseProfiler; Cerep BioPrint panel)
Procedure: as §1

SGK = target: T21, SGK (Homo sapiens, UniProt O00141); conditions: read-out: percentage of control activity (POC), SGK
T21 construct: purchased Eurofins Pharma Discovery Services (KinaseProfiler; Cerep BioPrint panel)
T21 sequence (O00141 1-431): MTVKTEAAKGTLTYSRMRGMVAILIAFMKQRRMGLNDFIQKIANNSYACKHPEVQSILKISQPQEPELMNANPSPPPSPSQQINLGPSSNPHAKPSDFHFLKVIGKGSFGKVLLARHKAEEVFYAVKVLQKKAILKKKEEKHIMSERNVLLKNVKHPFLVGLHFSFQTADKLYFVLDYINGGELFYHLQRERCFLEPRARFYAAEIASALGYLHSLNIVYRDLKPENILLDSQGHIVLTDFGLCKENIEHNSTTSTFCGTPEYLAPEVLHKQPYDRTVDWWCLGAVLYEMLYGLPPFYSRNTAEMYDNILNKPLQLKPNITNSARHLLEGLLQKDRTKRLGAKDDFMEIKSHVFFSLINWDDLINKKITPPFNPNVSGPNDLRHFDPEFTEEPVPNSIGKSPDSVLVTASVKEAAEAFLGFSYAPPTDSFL
Procedure: as §1

SRPK1 = target: T22, SRPK1 (Homo sapiens, UniProt Q96SB4); conditions: read-out: percentage of control activity (POC), SRPK1
T22 construct: purchased Eurofins Pharma Discovery Services (KinaseProfiler; Cerep BioPrint panel)
Procedure: as §1

Yes = target: T23, Yes (Homo sapiens, UniProt P07947); conditions: for remaining activity at 10 µM: read-out: percentage of control activity (POC), Yes
T23 construct: Eurofins Pharma Discovery Services (contract assay service)
Procedure: as §1

T20 sequence (Q15349 whole entry): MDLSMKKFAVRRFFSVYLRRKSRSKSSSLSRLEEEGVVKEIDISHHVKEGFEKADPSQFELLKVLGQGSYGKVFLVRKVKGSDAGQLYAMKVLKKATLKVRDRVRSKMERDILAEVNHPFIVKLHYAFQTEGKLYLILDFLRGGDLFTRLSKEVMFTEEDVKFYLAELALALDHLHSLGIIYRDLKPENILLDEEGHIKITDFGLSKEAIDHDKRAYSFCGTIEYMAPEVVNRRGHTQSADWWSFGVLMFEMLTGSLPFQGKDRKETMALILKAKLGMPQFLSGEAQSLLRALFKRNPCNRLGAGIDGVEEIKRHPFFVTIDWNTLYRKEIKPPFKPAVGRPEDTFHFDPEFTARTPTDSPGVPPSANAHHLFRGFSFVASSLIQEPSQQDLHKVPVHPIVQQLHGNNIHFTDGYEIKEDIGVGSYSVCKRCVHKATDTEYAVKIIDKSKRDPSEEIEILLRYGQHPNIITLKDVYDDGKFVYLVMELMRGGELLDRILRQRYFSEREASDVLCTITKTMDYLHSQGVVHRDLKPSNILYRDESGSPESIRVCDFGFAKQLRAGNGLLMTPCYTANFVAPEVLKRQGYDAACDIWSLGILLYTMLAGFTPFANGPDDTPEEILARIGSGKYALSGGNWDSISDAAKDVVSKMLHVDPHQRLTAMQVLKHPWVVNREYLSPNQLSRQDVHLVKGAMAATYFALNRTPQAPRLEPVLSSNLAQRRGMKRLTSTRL
T17 sequence (Q13177 whole entry): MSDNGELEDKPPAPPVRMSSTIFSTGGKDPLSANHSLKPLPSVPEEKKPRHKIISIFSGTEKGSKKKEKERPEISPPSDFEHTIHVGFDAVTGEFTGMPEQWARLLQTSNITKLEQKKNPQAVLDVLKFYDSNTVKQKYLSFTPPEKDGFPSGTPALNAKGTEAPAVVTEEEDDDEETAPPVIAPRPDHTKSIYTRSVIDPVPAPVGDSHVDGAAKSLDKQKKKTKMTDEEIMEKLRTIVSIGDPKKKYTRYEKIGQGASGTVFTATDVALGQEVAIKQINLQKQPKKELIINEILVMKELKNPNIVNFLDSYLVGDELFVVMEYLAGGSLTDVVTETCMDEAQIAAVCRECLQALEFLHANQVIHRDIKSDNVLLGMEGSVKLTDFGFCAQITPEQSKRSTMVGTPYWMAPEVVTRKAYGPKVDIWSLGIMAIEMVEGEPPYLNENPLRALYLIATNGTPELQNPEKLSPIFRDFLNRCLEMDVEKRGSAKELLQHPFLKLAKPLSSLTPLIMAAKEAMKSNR
T23 sequence (P07947 whole entry, species assumed): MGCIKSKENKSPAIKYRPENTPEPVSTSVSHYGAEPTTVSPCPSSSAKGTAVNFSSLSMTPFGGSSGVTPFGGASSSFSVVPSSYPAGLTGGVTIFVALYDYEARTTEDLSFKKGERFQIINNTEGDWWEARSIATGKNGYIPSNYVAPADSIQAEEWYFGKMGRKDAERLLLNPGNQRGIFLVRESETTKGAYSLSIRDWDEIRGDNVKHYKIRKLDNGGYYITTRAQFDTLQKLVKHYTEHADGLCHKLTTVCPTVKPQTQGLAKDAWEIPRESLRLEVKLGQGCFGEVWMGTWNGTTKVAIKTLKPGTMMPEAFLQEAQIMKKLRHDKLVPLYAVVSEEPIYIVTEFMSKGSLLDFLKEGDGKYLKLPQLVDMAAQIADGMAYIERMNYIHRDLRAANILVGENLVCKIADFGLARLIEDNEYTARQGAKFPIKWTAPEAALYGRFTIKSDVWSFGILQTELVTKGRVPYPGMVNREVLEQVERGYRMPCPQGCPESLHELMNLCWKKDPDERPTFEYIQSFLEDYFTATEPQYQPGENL
T4 sequence (Q9HCP0 whole entry): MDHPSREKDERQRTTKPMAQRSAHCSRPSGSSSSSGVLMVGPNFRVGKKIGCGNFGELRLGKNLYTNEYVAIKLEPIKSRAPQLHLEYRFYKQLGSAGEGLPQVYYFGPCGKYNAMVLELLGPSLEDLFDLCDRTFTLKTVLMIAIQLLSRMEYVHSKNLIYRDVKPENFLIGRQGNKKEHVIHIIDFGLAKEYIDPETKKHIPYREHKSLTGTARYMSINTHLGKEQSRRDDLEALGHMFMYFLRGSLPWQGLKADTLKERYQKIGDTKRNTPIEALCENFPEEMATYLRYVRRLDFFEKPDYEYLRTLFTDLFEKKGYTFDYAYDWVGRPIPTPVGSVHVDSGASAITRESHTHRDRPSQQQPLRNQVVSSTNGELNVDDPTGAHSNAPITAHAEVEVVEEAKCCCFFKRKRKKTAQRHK
T5 sequence (P19784 whole entry): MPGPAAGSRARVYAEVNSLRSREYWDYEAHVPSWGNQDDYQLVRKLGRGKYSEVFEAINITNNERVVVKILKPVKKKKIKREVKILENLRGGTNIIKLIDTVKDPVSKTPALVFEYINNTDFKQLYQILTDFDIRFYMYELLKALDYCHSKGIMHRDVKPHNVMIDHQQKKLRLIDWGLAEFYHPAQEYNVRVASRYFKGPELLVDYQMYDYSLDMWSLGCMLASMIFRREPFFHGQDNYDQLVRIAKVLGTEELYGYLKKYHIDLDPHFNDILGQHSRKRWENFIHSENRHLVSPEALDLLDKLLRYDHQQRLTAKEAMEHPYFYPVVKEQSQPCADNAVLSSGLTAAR
T16 sequence (Q9HBH9 whole entry): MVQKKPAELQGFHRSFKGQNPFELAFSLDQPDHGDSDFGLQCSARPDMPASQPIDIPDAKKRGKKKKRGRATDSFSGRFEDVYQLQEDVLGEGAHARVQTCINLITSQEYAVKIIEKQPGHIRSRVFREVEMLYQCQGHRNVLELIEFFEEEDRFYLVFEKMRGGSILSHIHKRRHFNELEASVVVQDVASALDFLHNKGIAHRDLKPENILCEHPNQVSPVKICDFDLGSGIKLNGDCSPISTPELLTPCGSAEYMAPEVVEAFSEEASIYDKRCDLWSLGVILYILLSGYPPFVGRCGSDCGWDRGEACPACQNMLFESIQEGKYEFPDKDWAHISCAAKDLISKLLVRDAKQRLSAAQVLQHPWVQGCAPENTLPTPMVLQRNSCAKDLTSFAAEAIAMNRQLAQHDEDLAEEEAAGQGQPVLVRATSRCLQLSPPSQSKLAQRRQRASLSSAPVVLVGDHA
T18 sequence (P31749 whole entry): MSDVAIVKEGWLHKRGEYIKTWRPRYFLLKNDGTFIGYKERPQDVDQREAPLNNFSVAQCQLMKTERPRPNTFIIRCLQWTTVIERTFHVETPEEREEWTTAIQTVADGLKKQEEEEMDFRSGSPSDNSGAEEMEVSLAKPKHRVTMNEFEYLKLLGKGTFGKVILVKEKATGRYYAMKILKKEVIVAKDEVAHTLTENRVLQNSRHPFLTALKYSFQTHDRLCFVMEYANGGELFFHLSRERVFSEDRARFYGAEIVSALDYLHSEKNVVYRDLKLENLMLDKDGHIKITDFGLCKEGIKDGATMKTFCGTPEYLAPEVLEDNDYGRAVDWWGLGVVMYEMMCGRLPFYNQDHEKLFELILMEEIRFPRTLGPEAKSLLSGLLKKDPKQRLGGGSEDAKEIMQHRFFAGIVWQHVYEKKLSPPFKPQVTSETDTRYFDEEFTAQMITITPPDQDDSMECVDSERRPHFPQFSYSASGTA
T13 sequence (P08069 31-1367): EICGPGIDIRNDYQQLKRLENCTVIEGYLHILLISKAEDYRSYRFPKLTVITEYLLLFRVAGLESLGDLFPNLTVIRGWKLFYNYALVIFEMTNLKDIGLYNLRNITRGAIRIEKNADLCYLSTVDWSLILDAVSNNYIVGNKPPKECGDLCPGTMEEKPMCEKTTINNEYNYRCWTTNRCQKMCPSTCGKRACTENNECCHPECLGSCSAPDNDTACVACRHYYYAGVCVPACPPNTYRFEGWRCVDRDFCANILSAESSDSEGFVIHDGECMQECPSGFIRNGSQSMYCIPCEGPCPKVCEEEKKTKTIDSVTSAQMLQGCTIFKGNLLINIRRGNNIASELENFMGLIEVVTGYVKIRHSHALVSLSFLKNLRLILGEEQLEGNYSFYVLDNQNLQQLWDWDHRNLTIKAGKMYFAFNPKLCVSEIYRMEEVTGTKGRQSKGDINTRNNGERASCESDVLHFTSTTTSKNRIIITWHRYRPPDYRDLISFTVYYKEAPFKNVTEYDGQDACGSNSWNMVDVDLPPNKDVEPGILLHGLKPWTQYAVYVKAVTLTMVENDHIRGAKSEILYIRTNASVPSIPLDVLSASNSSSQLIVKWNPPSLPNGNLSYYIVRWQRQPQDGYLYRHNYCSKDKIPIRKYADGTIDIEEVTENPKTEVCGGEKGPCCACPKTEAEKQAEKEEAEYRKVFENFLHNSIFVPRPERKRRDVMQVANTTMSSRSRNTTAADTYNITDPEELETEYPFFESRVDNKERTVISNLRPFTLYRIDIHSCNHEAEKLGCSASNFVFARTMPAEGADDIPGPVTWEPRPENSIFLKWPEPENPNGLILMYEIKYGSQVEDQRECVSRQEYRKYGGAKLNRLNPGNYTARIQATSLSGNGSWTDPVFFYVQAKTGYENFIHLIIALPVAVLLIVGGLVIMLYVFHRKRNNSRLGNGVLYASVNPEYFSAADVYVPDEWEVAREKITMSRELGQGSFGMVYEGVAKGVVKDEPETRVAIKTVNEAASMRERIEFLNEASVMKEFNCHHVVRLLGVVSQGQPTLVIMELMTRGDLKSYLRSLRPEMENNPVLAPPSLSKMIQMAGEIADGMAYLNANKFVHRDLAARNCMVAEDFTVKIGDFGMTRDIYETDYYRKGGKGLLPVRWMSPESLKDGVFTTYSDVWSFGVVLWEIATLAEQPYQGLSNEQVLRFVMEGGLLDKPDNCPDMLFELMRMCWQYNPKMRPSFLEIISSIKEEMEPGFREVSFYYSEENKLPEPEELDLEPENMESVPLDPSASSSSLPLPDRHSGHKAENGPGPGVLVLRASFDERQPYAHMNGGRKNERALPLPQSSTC

Structure (SMILES) | remaining activity at 10 µM (Aurora-A) | remaining activity at 10 µM (CDK1/cyclinB) | remaining activity at 10 µM (CDK6/cyclinD3) | remaining activity at 10 µM (CK1γ1) | remaining activity at 10 µM (CK2α2) | remaining activity at 10 µM (CSK) | remaining activity at 10 µM (CaMKI) | remaining activity at 10 µM (EphA2) | remaining activity at 10 µM (EphA5) | remaining activity at 10 µM (FGFR1) | remaining activity at 10 µM (FGFR3) | remaining activity at 10 µM (FGFR4) | remaining activity at 10 µM (IGF-1R) | remaining activity at 10 µM (JNK1α1) | remaining activity at 10 µM (MAPKAP-K2) | remaining activity at 10 µM (Mnk2) | remaining activity at 10 µM (PAK2) | remaining activity at 10 µM (PKBα) | remaining activity at 10 µM (PKCβII) | remaining activity at 10 µM (Rsk3) | also measured
Cn1cc(-c2cccc(-c3nc(C(=O)NC4C5CC6CC4CC(O)(C6)C5)c(N)nc3N)c2)cn1 (stereo not drawn) [compound 4] | 89% | 64% | 93% | 89% | 105% | 94% | 87% | 97% | 93% | 86% | 88% | 86% | 94% | 92% | 107% | 86% | 87% | 96% | 110% | 75% | remaining activity at 10 µM (SGK): 96%; remaining activity at 10 µM (SRPK1): 92%; inhibition at 10 µM (Yes; 10 μM): 77%; remaining activity at 10 µM (Yes; 10 μM): 23%; IC50 (Yes; biochemical dose response, duplicate, read-out: Inhibition of indicated activity (IC50, μM): Yes): 2.39 µM
CS(=O)(=O)N1CCN(c2ccc(Nc3ncc(C(N)=O)c(NC4CC4)n3)cc2)CC1 [compound 5] | 2% | 71% | 23% | 25% | 43% | 74% | 28% | 57% | 56% | 3% | 8% | 73% | 64% | 3% | 85% | 84% | 24% | 86% | 80% | 0% | remaining activity at 10 µM (SGK): 64%; remaining activity at 10 µM (SRPK1): 83%; remaining activity at 10 µM (Yes; 10 μM): 4%
COc1c(NC(=O)c2ccc(C)c(-c3nnc4c(NCC(C)(C)C)nccn34)c2)cc(C(C)(C)C)cc1NS(C)(=O)=O [compound 7, reference compound] | 110% | 101% | 100% | 98% | 114% | 88% | 108% | 63% | 65% | 109% | 97% | 89% | 123% | 96% | 110% | 98% | 96% | 99% | 113% | 110% | remaining activity at 10 µM (SGK): 114%; remaining activity at 10 µM (SRPK1): 100%; remaining activity at 10 µM (Yes; 10 μM): 99%

Now from value to molecule, other results behind:

remaining activity at 10 µM (Aurora-A) | remaining activity at 10 µM (CDK1/cyclinB) | remaining activity at 10 µM (CDK6/cyclinD3) | remaining activity at 10 µM (CK1γ1) | remaining activity at 10 µM (CK2α2) | remaining activity at 10 µM (CSK) | remaining activity at 10 µM (CaMKI) | remaining activity at 10 µM (EphA2) | remaining activity at 10 µM (EphA5) | remaining activity at 10 µM (FGFR1) | remaining activity at 10 µM (FGFR3) | remaining activity at 10 µM (FGFR4) | remaining activity at 10 µM (IGF-1R) | remaining activity at 10 µM (JNK1α1) | remaining activity at 10 µM (MAPKAP-K2) | remaining activity at 10 µM (Mnk2) | remaining activity at 10 µM (PAK2) | remaining activity at 10 µM (PKBα) | remaining activity at 10 µM (PKCβII) | remaining activity at 10 µM (Rsk3) | Structure (SMILES) | also measured
112% | 100% | 102% | 101% | 105% | 95% | 94% | 103% | 95% | 80% | 99% | 88% | 113% | 97% | 108% | 100% | 111% | 95% | 117% | 99% | CC(C)(C)N1CCC(c2cc(-c3ccc(F)cc3Cl)c3cc[n+]([O-])c(-c4c(Cl)cccc4Cl)c3n2)CC1 [compound 2] | remaining activity at 10 µM (SGK): 105%; remaining activity at 10 µM (SRPK1): 103%; remaining activity at 10 µM (Yes; 10 μM): 107%
96% | 96% | 97% | 98% | 108% | 107% | 95% | 100% | 99% | 95% | 92% | 91% | 89% | 96% | 106% | 91% | 89% | 91% | 103% | 102% | Cc1ccc(C(=O)NCC2CC2)cc1-c1ccc2c(c1)NC(=O)C21CCCC1 [compound 3] | remaining activity at 10 µM (SGK): 99%; remaining activity at 10 µM (SRPK1): 92%; remaining activity at 10 µM (Yes; 10 μM): 100%
